19 compounds from US20250230147A1, “LACTAMS AS CBL-B INHIBITORS” (Genentech, Inc., priority 2021, published 2025) can be followed below.

One assay addresses Cbl-b (Homo sapiens (Human), UniProt Q13191). The assay is described as follows: Cbl-b LCK Ub TR-FRET assay (Cbl-b Lck HTRF). The format is biochemical. The method, boiled down:
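TR-FRET (340 nm excitation, 615/665 nm emission) read after adding HA-ubiquitin–UBE2D2 thioester, anti-HA-D2 and streptavidin-Eu. Beforehand, compounds incubated 60 min with biotinylated Cbl-b, then 90 min with His-LCK and ATP (1 mM in 2× mix); IC50 from 10 concentrations, DMSO high and no-LCK low controls.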

The next assay concerns the target c-Cbl (Homo sapiens (Human), UniProt P22681). Put plainly: C-Cbl LCK Ub TR-FRET assay (c-cbl Lck HTRF). The format is biochemical. Conditions: for (fold-selectivity): C-cbl Lck HTRF IC50 relative to Cbl-b Lck HTRF IC50. A digest of the protocol:
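After the ubiquitination reaction, detection mixture was added and plates incubated 20 min at room temperature before reading. IC50 values were calculated with wells lacking LCK as the low control and DMSO as the high control.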

Cbl-b, sequence (Q13191 40-426): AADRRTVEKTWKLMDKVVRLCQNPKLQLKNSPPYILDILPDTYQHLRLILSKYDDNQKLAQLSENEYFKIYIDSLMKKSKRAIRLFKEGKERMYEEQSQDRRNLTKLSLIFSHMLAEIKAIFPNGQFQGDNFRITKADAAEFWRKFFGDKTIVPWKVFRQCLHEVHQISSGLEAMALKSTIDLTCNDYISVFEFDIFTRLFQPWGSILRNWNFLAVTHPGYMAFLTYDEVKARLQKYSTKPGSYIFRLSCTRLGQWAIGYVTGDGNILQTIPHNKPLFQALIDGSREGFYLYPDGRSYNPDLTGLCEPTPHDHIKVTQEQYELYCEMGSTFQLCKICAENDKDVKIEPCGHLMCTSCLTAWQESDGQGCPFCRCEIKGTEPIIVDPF
c-Cbl, sequence (P22681 47-435): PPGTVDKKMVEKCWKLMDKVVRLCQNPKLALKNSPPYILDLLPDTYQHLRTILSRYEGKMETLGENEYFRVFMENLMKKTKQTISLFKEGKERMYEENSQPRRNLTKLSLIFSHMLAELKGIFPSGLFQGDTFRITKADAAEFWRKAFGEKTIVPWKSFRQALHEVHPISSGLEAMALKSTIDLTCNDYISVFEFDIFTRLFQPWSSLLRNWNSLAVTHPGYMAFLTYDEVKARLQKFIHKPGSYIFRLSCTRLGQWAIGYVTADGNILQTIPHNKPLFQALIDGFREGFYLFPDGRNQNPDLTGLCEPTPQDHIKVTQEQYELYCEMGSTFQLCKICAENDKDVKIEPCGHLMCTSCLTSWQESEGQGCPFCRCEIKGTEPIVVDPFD

`CC(C)[C@H]1CN(C)CCN1Cc1cc2c(c(C(F)(F)F)c1)CN(c1cccc(C3([C@H](F)c4nncn4C4CCCCC4)COC3)c1)C2=O` [Compound 455, 2-(3-(3-((S)-(4-cyclohexyl-4H-1,2,4-triazol-3-yl)fluoromethyl)oxetan-3-yl)phenyl)-6-(((S)-2-isopropyl-4-methylpiperazin-1-yl)methyl)-4-(trifluoromethyl)isoindolin-1-one]: the values for the concentration for half-maximal inhibition (IC50) on Cbl-b and at c-Cbl were 4400 nM and 3100 nM, respectively. The “(fold-selectivity)” value on c-Cbl is recorded as “(0.70x)”.

With `CCCNCc1cc2c(c(C(F)(F)F)c1)CN(c1cc(NC(C)C)cc(C3(Cc4nncn4C)CCC3)c1)C2=O` [Compound 456, 2-(3-(isopropylamino)-5-(1-((4-methyl-4H-1,2,4-triazol-3-yl)methyl)cyclobutyl)phenyl)-6-((propylamino)methyl)-4-(trifluoromethyl)isoindolin-1-one], at Cbl-b, the IC50 is 13 nM. In addition, at c-Cbl, the IC50 was 7.6 nM and the “(fold-selectivity)” value was “(0.56x)”.

With `CCNc1cc(N2Cc3c(cc(CNCC4CC4)cc3C(F)(F)F)C2=O)cc(C2(Cc3nncn3C)CCC2)c1` [Compound 457, 6-(((cyclopropylmethyl)amino)methyl)-2-(3-(ethylamino)-5-(1-((4-methyl-4H-1,2,4-triazol-3-yl)methyl)cyclobutyl)phenyl)-4-(trifluoromethyl)isoindolin-1-one], the IC50 against Cbl-b came out at 17 nM. On c-Cbl, inhibition was half-maximal at 12 nM (IC50) and the “(fold-selectivity)” value was “(0.71x)”.

As for `CCCNCc1cc2c(c(C(F)(F)F)c1)CN(c1cc(NCC)cc(C3(Cc4nncn4C)CCC3)c1)C2=O` [Compound 458, 2-(3-(ethylamino)-5-(1-((4-methyl-4H-1,2,4-triazol-3-yl)methyl)cyclobutyl)phenyl)-6-((propylamino)methyl)-4-(trifluoromethyl)isoindolin-1-one], on Cbl-b, the 50% inhibitory concentration (IC50) was 23 nM. Further, on c-Cbl, the IC50 was 15 nM and the “(fold-selectivity)” value is recorded as “(0.66x)”.

Compound `CC(C)Nc1cc(N2Cc3c(cc(CNCC4CC4)cc3C(F)(F)F)C2=O)cc(C2(Cc3nncn3C)CCC2)c1` [Compound 459, 6-(((cyclopropylmethyl)amino)methyl)-2-(3-(isopropylamino)-5-(1-((4-methyl-4H-1,2,4-triazol-3-yl)methyl)cyclobutyl)phenyl)-4-(trifluoromethyl)isoindolin-1-one] returned an IC50 against Cbl-b of 13 nM. At c-Cbl, inhibition was half-maximal at 8.7 nM (IC50) and the “(fold-selectivity)” value was “(0.70x)”.

Consider `CCN1CCN(Cc2cc3c(c(C(F)(F)F)c2)CN(c2cccc(C4([C@@H](F)c5nncn5C)CC(F)(F)C4)c2)C3=O)[C@@H](C(C)C)C1` [Compound 460, 2-(3-(3,3-difluoro-1-((R)-fluoro(4-methyl-4H-1,2,4-triazol-3-yl)methyl)cyclobutyl)phenyl)-6-(((S)-4-ethyl-2-isopropylpiperazin-1-yl)methyl)-4-(trifluoromethyl)isoindolin-1-one], for which the IC50 against Cbl-b was determined as 14 nM; against c-Cbl, 8.4 nM. The “(fold-selectivity)” value at c-Cbl is “(0.58x)”.

Regarding `CCN1CCN(Cc2cc3c(c(C(F)(F)F)c2)CN(c2cccc(C4([C@H](F)c5nncn5C)CC(F)(F)C4)c2)C3=O)[C@@H](C(C)C)C1` [Compound 461, 2-(3-(3,3-difluoro-1-((S)-fluoro(4-methyl-4H-1,2,4-triazol-3-yl)methyl)cyclobutyl)phenyl)-6-(((S)-4-ethyl-2-isopropylpiperazin-1-yl)methyl)-4-(trifluoromethyl)isoindolin-1-one], inhibition against Cbl-b was half-maximal at 9.9 nM (IC50). For the same compound, on c-Cbl, the half-inhibitory concentration (IC50) turned out to be 8.2 nM and the “(fold-selectivity)” value is listed as “(0.82x)”.

Turning to `CC(C)Nc1cc(N2Cc3c(cc(CNC4(C)CCC4)cc3C(F)(F)F)C2=O)cc(C2(Cc3nncn3C)CCC2)c1` [Compound 462, 2-(3-(isopropylamino)-5-(1-((4-methyl-4H-1,2,4-triazol-3-yl)methyl)cyclobutyl)phenyl)-6-(((1-methylcyclobutyl)amino)methyl)-4-(trifluoromethyl)isoindolin-1-one], the half-maximal inhibitory concentration (IC50) at Cbl-b stood at 8.3 nM. Moreover, on c-Cbl, the IC50 is 7.9 nM and the “(fold-selectivity)” value is listed as “(0.95x)”.

On Cbl-b, `CCNc1cc(N2Cc3c(cc(CNC4(C)CCC4)cc3C(F)(F)F)C2=O)cc(C2(Cc3nncn3C)CCC2)c1` [Compound 463, 2-(3-(ethylamino)-5-(1-((4-methyl-4H-1,2,4-triazol-3-yl)methyl)cyclobutyl)phenyl)-6-(((1-methylcyclobutyl)amino)methyl)-4-(trifluoromethyl)isoindolin-1-one] yielded an IC50 of 6 nM. Further, at c-Cbl, half-maximal inhibition (IC50) was put at 3.5 nM and the “(fold-selectivity)” value is “(0.55x)”.

Turning to `Cn1cnnc1[C@H](F)C1(c2cccc(N3Cc4c(cc(CNC5(C)CCC5)cc4C(F)(F)F)C3=O)c2)CC(F)(F)C1` [Compound 464, (R)-2-(3-(3,3-difluoro-1-(fluoro(4-methyl-4H-1,2,4-triazol-3-yl)methyl)cyclobutyl)phenyl)-6-(((1-methylcyclobutyl)amino)methyl)-4-(trifluoromethyl)isoindolin-1-one], the concentration for half-maximal inhibition (IC50) against Cbl-b was found to be 12 nM. Further, on c-Cbl, the IC50 came out at 12 nM and the “(fold-selectivity)” value is “(1.0x)”.

As to `Cn1cnnc1[C@@H](F)C1(c2cccc(N3Cc4c(cc(CNC5(C)CCC5)cc4C(F)(F)F)C3=O)c2)CC(F)(F)C1` [Compound 465, (S)-2-(3-(3,3-difluoro-1-(fluoro(4-methyl-4H-1,2,4-triazol-3-yl)methyl)cyclobutyl)phenyl)-6-(((1-methylcyclobutyl)amino)methyl)-4-(trifluoromethyl)isoindolin-1-one], the IC50 at Cbl-b is 14 nM. In addition, at c-Cbl, the midpoint of inhibition, the IC50, lay at 13 nM and the “(fold-selectivity)” value is given as “(0.90x)”.

Take `CCNc1cc(N2Cc3c(cc(CNC4(C)CCC4)cc3C(F)(F)F)C2=O)cc(C2(Cc3nncn3C)CC(F)(F)C2)c1` [Compound 466, 2-(3-(3,3-difluoro-1-((4-methyl-4H-1,2,4-triazol-3-yl)methyl)cyclobutyl)-5-(ethylamino)phenyl)-6-(((1-methylcyclobutyl)amino)methyl)-4-(trifluoromethyl)isoindolin-1-one]: half-maximal inhibition against Cbl-b (IC50) was put at 6.4 nM. Besides, on c-Cbl, it took 6.1 nM to reach half-maximal inhibition (IC50) and the “(fold-selectivity)” value was “(0.96x)”.

As for `Cn1cnnc1C[C@]1(c2cccc(N3Cc4c(cc(CNC5(C)CCC5)cc4C(F)(F)F)C3=O)c2)C[C@H](C#N)C1` [Compound 467, (1r,3r)-3-((4-methyl-4H-1,2,4-triazol-3-yl)methyl)-3-(3-(6-(((1-methylcyclobutyl)amino)methyl)-1-oxo-4-(trifluoromethyl)isoindolin-2-yl)phenyl)cyclobutanecarbonitrile], the midpoint of inhibition at Cbl-b, the IC50, lay at 12 nM. In addition, on c-Cbl, 11 nM corresponded to half-maximal inhibition (IC50) and the “(fold-selectivity)” value is given as “(0.89x)”.

As to `Cn1cnnc1C[C@]1(c2cccc(N3Cc4c(cc(CNC5(C)CCC5)cc4C(F)(F)F)C3=O)c2)C[C@@H](C#N)C1` [Compound 468, (1s,3s)-3-((4-methyl-4H-1,2,4-triazol-3-yl)methyl)-3-(3-(6-(((1 - methylcyclobutyl)amino)methyl)-1-oxo-4-(trifluoromethyl)isoindolin-2-yl)phenyl)cyclobutanecarbonitrile], the IC50 against Cbl-b and on c-Cbl was 15 nM each time. Moreover, the “(fold-selectivity)” value on c-Cbl is recorded as “(1.0x)”.

Take `CC[C@H]1CC[C@H](c2cc3c(c(C(F)(F)F)c2)CN(c2cccc(C4(Cc5nncn5C)CC(F)(F)C4)c2)C3=O)N1` [Compound 469, 2-(3-(3,3-difluoro-1-((4-methyl-4H-1,2,4-triazol-3-yl)methyl)cyclobutyl)phenyl)-6-((2R,5S)-5-ethylpyrrolidin-2-yl)-4-(trifluoromethyl)isoindolin-1-one]: on Cbl-b, the midpoint of inhibition, the IC50, lay at 48 nM. Besides, at c-Cbl, the IC50 was 52 nM and the “(fold-selectivity)” value is listed as “(1.1x)”.

For the compound `Cn1cnnc1[C@H](F)C1(c2cccc(N3Cc4c(Br)cc(CNC5(C)CCC5)cc4C3=O)c2)COC1` [Compound 471, (R)-4-bromo-2-(3-(3-(fluoro(4-methyl-4H-1,2,4-triazol-3-yl)methyl)oxetan-3-yl)phenyl)-6-(((1-methylcyclobutyl)amino)methyl) isoindolin-1-one], the IC50 at Cbl-b was found to be 8.2 nM; on c-Cbl, 6.8 nM. Besides, the “(fold-selectivity)” value on c-Cbl is given as “(0.83x)”.

Consider `Cn1cnnc1CC1(c2cc(C3CC3)cc(N3Cc4c(cc(CNC5(C)CCC5)cc4C(F)(F)F)C3=O)c2)COC1` [Compound 472, 2-(3-cyclopropyl-5-(3-((4-methyl-4H-1,2,4-triazol-3-yl)methyl)oxetan-3-yl)phenyl)-6-(((1-methylcyclobutyl)amino)methyl)-4-(trifluoromethyl)isoindolin-1-one], for which the IC50 on Cbl-b turned out to be 15 nM. Moreover, at c-Cbl, 13 nM corresponded to half-maximal inhibition (IC50) and the “(fold-selectivity)” value is reported as “(0.83x)”.

Consider `CCOc1cc(N2Cc3c(cc(CNC4(C)CCC4)cc3C(F)(F)F)C2=O)cc(C2(Cc3nncn3C)COC2)c1` [Compound 473, 2-(3-ethoxy-5-(3-((4-methyl-4H-1,2,4-triazol-3-yl)methyl)oxetan-3-yl)phenyl)-6-(((1-methylcyclobutyl)amino)methyl)-4-(trifluoromethyl)isoindolin-1-one], for which the IC50 against Cbl-b stood at 15 nM; against c-Cbl it was 17 nM. At c-Cbl, the “(fold-selectivity)” value is reported as “(1.2x)”.

Compound `CCNc1cc(N2Cc3c(cc(CNC4(C)CCC4)cc3C(F)(F)F)C2=O)cc(C2(Cc3nncn3C)COC2)c1` [Compound 474, 2-(3-(ethylamino)-5-(3-((4-methyl-4H-1,2,4-triazol-3-yl)methyl)oxetan-3-yl)phenyl)-6-(((1-methylcyclobutyl)amino)methyl)-4-(trifluoromethyl)isoindolin-1-one] came in with an IC50 at Cbl-b of 11 nM. Moreover, at c-Cbl, 8.6 nM corresponded to half-maximal inhibition (IC50) and the “(fold-selectivity)” value was “(0.79x)”.
